In PMC10821286 (Marine Drugs, 2023):
In brackets after ≈: the same amount, converted by molar mass. Like-named read-outs stand apart in the source and are kept apart here. Each block holds one molecule with its values, some of them ahead of it. Where a SMILES comes first, the peptide text is derived from it. Bridges are numbered along the chain shown (N, C = ends).

Tests used:
[1] = system: S. pseudintermedius A2101; assay: organism not typed; format: cell-based; conditions: microbroth dilution, 1 × 10^5 CFU/mL, 37 °C, 12–18 h, triplicate
Method: (§1) Each experiment was performed in triplicate.

S. epidermidis G-81 [2] = assay: Murine subcutaneous abscess model of S. epidermidis infection; format: in vivo, BALB/c mice; conditions: mice, day three post-infection
Method: The sterile saline was used for rapid washing twice.
The six-week-old BALB/c mice were divided randomly into five groups of nine animals: a normal saline control group, an infection group, three drug treatment groups (including AOD treatment in two groups and lincomycin treatment in one group). The hair removal solution was applied to the abdomen of each mouse in every group. One day later, each group, except for the control group, was subcutaneously injected with 0.1 mL of S. epidermidis G-81 at a concentration of 1 × 10^10 CFU/mL. […] In contrast, the infected group received an injection of 10 μL normal saline. The treatment duration was three days, and we continuously observed the weight and volume changes in the abscesses for 15 days. […] […] The results were presented as means ± standard deviation (SD).

S. agalactiae ATCC 13813 = conditions: microbroth dilution, 1 × 10^5 CFU/mL, 37 °C, 12–18 h, triplicate
Method: (§2) The strains to be tested were cultured overnight at 37 °C and then transferred to fresh medium until the logarithmic phase of growth was reached. […] The plate was then incubated at 37 °C for 12–18 h. The minimum concentration of no bacterial growth was recorded as the MIC value. Each experiment was performed in triplicate.

[3] = system: S. epidermidis ATCC 35984; conditions: microbroth dilution, 1 × 10^5 CFU/mL, 37 °C, 12–18 h, triplicate
Method: as §2

mouse red blood cells = conditions: 128 μg/mL; mouse erythrocytes, 37 °C, 1 h
Method: Erythrocytes from mice of SPF grade were centrifuged at 2000 rpm for 5 min, followed by washes with saline solution three times. […] The mixture was then incubated at 37 °C for 1 h. Subsequently, it was centrifuged at 5000 rpm for 5 min and the supernatant was collected for measurement of the absorbance at OD540 nm. The 0.9% NaCl and 0.1% Triton X-100 were used as blank (A0) and positive (A100) controls, respectively [32]. The percentage of peptide hemolysis is calculated as follows: Hemolysis (%) = [(A − A0)/(A100 − A0)] × 100. Each experiment was performed in triplicate, and data were analyzed by the GraphPad Prism (version 8, USA, the software download from https://www.graphpad-prism.cn/, accessed on 7 June 2023).

Hacat cells = conditions: 24 h, cck-8
Method: Cell survival rate is calculated as follows: Survival rate (%) = (A/Acontrol) × 100.

[4] = system: S. epidermidis ATCC 12228; assay: microbe, parasite or virus in culture; format: cell-based, Staphylococcus epidermidis; conditions: 1 × 10^5 CFU/mL, 37 °C, 12–18 h, triplicate
Method: as §1

S. epidermidis G-81 [5] = assay: microbe, parasite or virus in culture; format: cell-based, Staphylococcus epidermidis; conditions: 1 × 10^5 CFU/mL, 37 °C, 12–18 h, triplicate
Method: as §1

Ion stability = format: physicochemical; conditions: Zn2+, Mg2+, Ca2+, NH4+, K+, Na+; 37 °C, 4 h (method); read-out MIC against S. epidermidis
Text: The results were presented as means ± standard deviation (SD).

S. aureus E48 = assay: microbe, parasite or virus in culture; format: cell-based, Staphylococcus aureus; conditions: microbroth dilution, 1 × 10^5 CFU/mL, 37 °C, 12–18 h, triplicate
Method: as §1

S. aureus ATCC 43300 = assay: microbe, parasite or virus in culture; format: cell-based, Staphylococcus aureus; conditions: 1 × 10^5 CFU/mL, 37 °C, 12–18 h, triplicate
Method: as §1

S. aureus ATCC 25923 = assay: microbe, parasite or virus in culture; format: cell-based, Staphylococcus aureus; conditions: 1 × 10^5 CFU/mL, 37 °C, 12–18 h, triplicate
Method: as §1

S. hyicus NCTC 10350 = assay: microbe, parasite or virus in culture; format: cell-based; conditions: 1 × 10^5 CFU/mL, 37 °C, 12–18 h, triplicate
Method: as §1

[6] = 100 °C, one hour in PBS; read-out MIC against S. epidermidis
Method: (§3) Each experiment was performed in triplicate, and data were analyzed by the GraphPad Prism (version 8, USA, the software download from https://www.graphpad-prism.cn/, accessed on 7 June 2023).

pepsin = pepsin 3000 U/mg, pH 2.0, ratio 10:1, 37 °C, 4 h; read-out MIC against S. epidermidis, triplicate
Method: as §3

trypsin = trypsin 250 U/mg, pH 8.0, ratio 10:1, 37 °C, 4 h; read-out MIC against S. epidermidis, triplicate
Method: as §3

S. epidermidis G-81 [7] = assay: Time-killing curves; format: cell-based, Staphylococcus epidermidis; conditions: S. epidermidis G-81, lincomycin 1× and 2× MIC (positive control), 24 h
Method: Samples were collected at intervals of 0, 0.5, 1, 2, 4, 6, 8, 10, 12, and 24 h, respectively, and subjected to 10-fold serial dilutions followed by colony counting. PBS and Lincomycin were used as negative and positive controls. […] The results were presented as means ± standard deviation (SD).

E. coli ATCC 25922 = assay: MIC, microbroth dilution; format: cell-based; conditions: Escherichia coli, ATCC25922, 1 × 10^5 CFU/mL, 37 °C, 12–18 h, triplicate

Structure (SMILES): CC[C@H](C)[C@@H]1NC(=O)[C@H](CO)NC(=O)[C@H](CCCNC(=N)N)NC(=O)[C@@H]2CSSC[C@@H](C(=O)N[C@@H](Cc3ccc(O)cc3)C(=O)N[C@@H](CCCNC(=N)N)C(=O)N[C@@H](CO)C(=O)O)NC(=O)[C@H]([C@@H](C)O)NC(=O)[C@@H]3CSSC[C@H](NC(=O)[C@H](CCC(N)=O)NC(=O)[C@H](Cc4ccc(O)cc4)NC(=O)[C@H](CCCNC(=N)N)NC(=O)[C@H](CC(N)=O)NC(=O)[C@H](Cc4c[nH]c5ccccc45)NC(=O)[C@@H]4CCCN4C(=O)[C@@H](NC(=O)CNC(=O)[C@H](Cc4ccccc4)NC(=O)CN)CSSC[C@H](NC(=O)[C@H](Cc4ccc(O)cc4)NC(=O)CNC(=O)CNC(=O)[C@H](CC(C)C)NC(=O)[C@H](CCCNC(=N)N)NC(=O)CNC1=O)C(=O)N[C@@H](C)C(=O)NCC(=O)N[C@@H](CO)C(=O)N[C@@H](CC(C)C)C(=O)N[C@@H](CCCNC(=N)N)C(=O)N[C@@H](CC(C)C)C(=O)N[C@@H]([C@@H](C)O)C(=O)N3)C(=O)N[C@@H](Cc1c[nH]cn1)C(=O)N[C@@H](CO)C(=O)N[C@@H](Cc1c[nH]cn1)C(=O)N2 [AOD] (H-GFGCPWNRYQCHSHCRSIGRLGGYCAGSLRLTCTCYRS-OH; disulfide 4-25, 11-33, 15-35)
MIC [1]: 8 µg/mL (≈ 1.88 µM)
heart indices (S. epidermidis G-81 [2]): elevated only in the AOD-treated group
MIC (S. agalactiae ATCC 13813): 4 µg/mL (≈ 0.938 µM)
MIC [3]: 4 µg/mL (≈ 0.938 µM)
hemolysis rate (mouse red blood cells): less than 0.5%
cell survival rate (Hacat cells; 128 μg/mL): over 83%
cell survival rate (Hacat cells; 128 mg/mL (so in the source)): 98%
MIC ([4]; microbroth dilution): 4 µg/mL (≈ 0.938 µM)
MIC (S. epidermidis G-81 [5]; microbroth dilution): 4 µg/mL (≈ 0.938 µM)
ion stability (Ion stability): remarkable stability
MIC (S. aureus E48): 8 µg/mL (≈ 1.88 µM)
MIC (S. aureus ATCC 43300; microbroth dilution): 8 µg/mL (≈ 1.88 µM)
MIC (S. aureus ATCC 25923; microbroth dilution): 16 µg/mL (≈ 3.75 µM)
MIC (S. hyicus NCTC 10350; microbroth dilution): 16 µg/mL (≈ 3.75 µM)
antibacterial activity remaining after heating [6]: 20%
MIC values after treatment with pepsin (pepsin): remained unchanged
MIC values after treatment with trypsin (trypsin): remained unchanged

MIC ([1]; read-out: MIC): 32 µg/mL (≈ 78.7 µM)
MIC (E. coli ATCC 25922): 2 µg/mL (≈ 4.92 µM)
MIC ([4]; Staphylococcus epidermidis, ATCC12228, microbroth dilution, read-out: MIC): 4 µg/mL (≈ 9.84 µM)
MIC (S. epidermidis G-81 [5]; Staphylococcus epidermidis, G81, microbroth dilution, read-out: MIC): 4 µg/mL (≈ 9.84 µM)
MIC (S. aureus E48; Staphylococcus aureus, read-out: MIC): 1 µg/mL (≈ 2.46 µM)
MIC (S. aureus ATCC 43300; Staphylococcus aureus, ATCC43300, microbroth dilution, read-out: MIC): > 64 µg/mL
MIC (S. aureus ATCC 25923; Staphylococcus aureus, ATCC25923, microbroth dilution, read-out: MIC): 1 µg/mL (≈ 2.46 µM)
MIC (S. hyicus NCTC 10350; Staphylococcus hyicus, NCTC10350, microbroth dilution, read-out: MIC): 32 µg/mL (≈ 78.7 µM)
Structure (SMILES): CCC[C@@H]1C[C@@H](C(=O)N[C@@H]([C@H]2O[C@H](SC)[C@H](O)[C@@H](O)[C@H]2O)[C@@H](C)O)N(C)C1 [Lincomycin, reference compound]
course of bacterial counts (S. epidermidis G-81 [7]): gradual decrease
